Test results published in patent US20240199618A1, “NOVEL N-ACYL-[3-SUBSTITUTED]-[8-SUBSTITUTED]-5,6-DIHYDRO-[1,2,4]TRIAZOLO[4,3-a]PYRAZINES AS SELECTIVE NK-3 RECEPTOR ANTAGONISTS, PHARMACEUTICAL COMPOSITION, METHODS FOR USE IN NK-3 RECEPTOR-MEDIATED DISORDERS” (Ogeda SA, priority 2013, published 2024).
pKi: −log10 of the molar value.

Assays:
[1] = tested on: hot flashes in postmenopausal women; assay: Phase 2a clinical trial, menopausal hot flashes; assay type: in vivo, human
Method: Clinical Evaluation of compound n^o 5 for the Treatment of Menopausal Hot Flashes Objectives: The study objective is to evaluate the effect of compound n^o 5 on the severity and frequency of hot flashes in postmenopausal women. Design and Setting: The Phase 2a clinical trial was conducted in 80 patients, divided over 2 treatment groups of 40 patients each. […] The Phase 2a trial was double blind and randomized. This Phase 2a trial was conducted on healthy menopausal women (40-65 y) experiencing at least 49 moderate or severe hot flashes or night sweats over a period of 7 consecutive days in the screening period (maximum of 4 weeks). The study was conducted on an ambulatory basis where patients were asked to visit the clinical site on the first day of dosing and at weeks 4, 8, 12 during the treatment period with a follow-up visit 2-3 weeks after conclusion of dosing. Hot flashes were to be reported daily in the morning and the evening using an electronic diary tool. These reported events were used to calculate the Hot Flash Frequency and the Hot Flash Score. The weekly number of hot flashes was calculated in two ways: cumulatively for all severity grades, and cumulatively but leaving out the number of mild hot flashes. Hot Flash Frequencies were calculated for weeks 4 and 12. The Hot Flash Score (HFS) is a composite score combining both frequency and severity. This score is an accepted method to assess the overall severity of the hot flash burden and is calculated weekly. The score is a general measure of the number and severity of all hot flashes occurred during a given time period. The Hot Flash Score (based on severity and frequency) is calculated as follows: • day-score=(number of mild hot flashes/day×1)+(number of moderate hot flashes/day×2)+(number of severe hot flashes/day×3) • The weekly hot flash score is calculated: […] Higher scores indicate worse symptoms.

[2] = biological target: human NK-2 receptor (Homo sapiens (Human), UniProt P21452); assay: Selectivity assay: [125I]-Neurokinin A binding, human NK-2 receptor; conditions: 0.1 nM [125I]-Neurokinin A, CHO membranes; read-out: hNK-2 (Ki)
Chain of human NK-2 receptor (P21452 whole entry): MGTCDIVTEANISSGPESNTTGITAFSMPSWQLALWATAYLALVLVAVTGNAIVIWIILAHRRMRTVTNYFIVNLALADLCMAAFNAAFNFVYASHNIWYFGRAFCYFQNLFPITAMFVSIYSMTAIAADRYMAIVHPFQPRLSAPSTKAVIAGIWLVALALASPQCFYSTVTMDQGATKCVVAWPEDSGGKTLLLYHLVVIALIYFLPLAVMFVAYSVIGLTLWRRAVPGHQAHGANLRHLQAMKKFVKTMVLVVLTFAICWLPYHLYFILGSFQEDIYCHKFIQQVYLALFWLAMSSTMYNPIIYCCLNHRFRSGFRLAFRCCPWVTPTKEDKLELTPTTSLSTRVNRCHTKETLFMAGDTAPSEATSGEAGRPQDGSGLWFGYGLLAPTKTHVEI
Method: The affinity of compounds of the invention for the NK-2 receptor was evaluated in CHO recombinant cells which express the human NK-2 receptor. Membrane suspensions were prepared from these cells. […] Binding assays were performed in a 25 mM HEPES/1 mM CaCl2)/5 mM MgCl2/0.5% BSA/10 μg/ml saponin, at pH 7.4. […] The radioactivity retained on the filters was measured by using the TopCount-NXT reader (Packard).

[3] = tested on: serum Total Testosterone, LH, FSH in women with PCOS; assay: Phase 2a clinical trial, PolyCystic Ovary Syndrome (PCOS); assay type: in vivo, human
Method: Clinical Evaluation of Compound n^o 5 for the Treatment of PolyCystic Ovary Syndrome (PCOS)
Objectives: The study objectives are to evaluate the effect of compound n^o 5 on the serum levels of Total Testosterone (TT), Luteinizing Hormone (LH), Follicle Stimulating Hormone (FSH) and LH:FSH ratio after 12 weeks of treatment.
Design and Setting: The Phase 2a clinical trial was conducted in 48 patients, divided over 2 treatment groups of 24 patients each. One group received placebo while the other group received 180 mg of compound n^o 5 once daily (QD) for a period of 12 weeks. The Phase 2a trial was double blind and randomized. […] The study was conducted on an ambulatory basis where patients were asked to visit the clinical site on the first day of dosing and at weeks 3, 6, 9 and 12 during the treatment period with a follow-up visit 2-3 weeks after conclusion of dosing.
Blood draws for LH, FSH and TT were taken every visit between 2 and 8 hours after drug intake (baseline and week 3-6-12). At week 9 the blood samples were taken in the morning before drug intake (i.e. at trough PK concentrations for compound n^o 5). These blood draws were the basis for assessing the primary (TT) and secondary (LH, FSH, LH:FSH ratio) endpoints. The primary endpoint of Total Testosterone was measured according to GLP using an LC-MS/MS method.
PCOS is typically characterized by excessive ovarian androgen production, failure of ovulation, and slightly enlarged ovaries with numerous peripheral small follicles that appear as cysts. The disorder is commonly accompanied by infertility. Typically, the clinical features of PCOS are associated with hypersecretion of LH and androgens (TT) but with normal serum concentrations of FSH hormone. Laboratory examinations reveal elevated TT levels in about 50% of the patients, accompanied by an elevated LH:FSH ratio (>2) due to the imbalanced secretion of both hormones (a ratio of 1 is considered normal).

[4] = biological target: human NK-1 receptor (Homo sapiens (Human), UniProt P25103); assay: Selectivity assay: [3H] substance P binding, human NK-1 receptor; conditions: 2 nM [3H] substance P, CHO membranes; read-out: hNK-1 (Ki)
Chain of human NK-1 receptor (P25103 whole entry): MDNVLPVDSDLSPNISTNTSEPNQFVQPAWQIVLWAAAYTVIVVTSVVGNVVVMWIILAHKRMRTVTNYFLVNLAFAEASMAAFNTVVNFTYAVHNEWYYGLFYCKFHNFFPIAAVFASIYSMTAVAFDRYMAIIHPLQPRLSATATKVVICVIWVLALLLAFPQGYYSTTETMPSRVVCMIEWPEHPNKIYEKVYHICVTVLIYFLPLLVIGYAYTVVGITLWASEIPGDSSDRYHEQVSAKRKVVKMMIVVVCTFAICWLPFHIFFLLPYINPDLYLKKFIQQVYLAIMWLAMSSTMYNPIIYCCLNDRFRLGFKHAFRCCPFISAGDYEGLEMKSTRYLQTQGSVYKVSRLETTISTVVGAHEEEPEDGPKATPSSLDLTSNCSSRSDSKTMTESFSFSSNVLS
How it was run: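 Competition binding on membranes from CHO cells expressing human NK-1 receptor, using 2 nM [3H] substance P in 50 mM Tris/5 mM MnCl2/150 mM NaCl/0.1% BSA, pH 7.4, with increasing compound concentrations. Incubated 60 min at 25 °C; bound radioactivity measured after filtration.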

[5] = 90 mg BID, postmenopausal women
[6] = Baseline, 90 mg BID group, moderate and severe hot flashes

- pKi [2]: < 4.52
- pKi [4]: < 4.52
Structure (SMILES): Cc1nsc(-c2nnc3n2CCN(C(=O)c2ccc(F)cc2)[C@@H]3C)n1 [Compound 5, (R)-(4-fluorophenyl)(8-methyl-3-(3-methyl-1,2,4-thiadiazol-5-yl)-5,6-dihydro-[1,2,4]triazolo[4,3-a]pyrazin-7(8H)-yl)methanone]
- Frequency of hot flashes in comparison of placebo [1, 5]: significantly reduced
- Score of hot flashes in comparison of placebo [1, 5]: significantly reduced
- Hot Flash Score (mean) [1, 6]: 29.08
- Hot Flashes Frequency (mean) [1, 6]: 11.84
- Hot Flash Score (mean) ([1]; Week 4, 90 mg BID oral): 2.96
- Hot Flashes Frequency (mean) ([1]; Week 4, 90 mg BID oral): 1.35
- Hot Flash Score (mean) ([1]; Week 12, 90 mg BID oral): 1.70
- Hot Flashes Frequency (mean) ([1]; Week 12, 90 mg BID oral): 0.79
- FSH secretion ([3]; 180 mg QD, women with PCOS): preserved
- LH ([3]; 180 mg QD, women with PCOS): significant decrease
- LH:FSH in comparison of placebo ([3]; 180 mg QD, women with PCOS): significantly reduced
- TT in comparison of placebo ([3]; 180 mg QD, women with PCOS): significantly reduced
- Total Testosterone (mean) ([3]; Baseline, 180 mg QD group): 2.16 nmol/L
- Total Testosterone (mean) ([3]; Week 6, 180 mg QD oral): 1.41 nmol/L
- Total Testosterone (mean) ([3]; Week 12, 180 mg QD oral): 1.39 nmol/L
